Data as given in US6524999B2, “Growth inhibitors against algae and moss” (Kagome Kabushiki Kaisha, priority 2000, dated 2003).

System: algae (Chlamydomonas, Scenedesumus, Actinastrum, Ulothrix, Oscillatoria, Spirogyra, Pleurotaenium, Stichoccus and Chlorella)
Assay: Hydroponic Culture Test No. 1: algae disks immersed in test nutrient solutions, visual examination of algae growth
Assay type: cell-based, algae collected from hydroponic culture of tomato plants
Parameters: key: +: Algae growth was clearly observed; −: Algae growth was not observed
Settings: 7 days, 250° C., continuous light 2500 lux
Procedure: Algae which grew in hydroponic culture of tomato plants inside a greenhouse provided with a hydroponic culture system were collected. A control nutrient solution was prepared by dissolving in 1 liter of water 0.625 g, 0.417 g, 0.042 g and 0.029 g respectively of Otsuka House Nos. 1, 2, 3 and 5 (tradenames of products by Otsuka Chemical Co., Ltd.) Identified in the collected algae were the following nine kinds: Chlamydomonas, Scenedesumus, Actinastrum, Ulothrix, Oscillatoria, Spirogyra, Pleurotaenium, Stichoccus and Chlorella.
The algae thus collected were filtered by using a filtering net with opening diameter of 53 μm. After the filtrate was buried inside the aforementioned control nutrient solution containing agar by 0.8 weight %, disks were cut out therefrom by means of a cork borer. Test nutrient solutions which were individually prepared by adding indoleacetic acid, 3-indole propionic acid or 3-(3-indolyl) butyric acid shown by Formula 1 at different concentrations to the control nutrient solution, and after these disks were immersed individually in these test nutrient solutions for 7 days at […] under a continuous illumination of light at 2500 lux, the growth of algae was visually examined.

Structure (SMILES) | growth of algae (visual) (Concentration 0.1 mg/liter) | growth of algae (visual) (Concentration 0.5 mg/liter) | growth of algae (visual) (Concentration 1 mg/liter) | growth of algae (visual) (Concentration 5 mg/liter) | growth of algae (visual) (Concentration 10 mg/liter) | growth of algae (visual) (Concentration 25 mg/liter) | growth of algae (visual) (Concentration 50 mg/liter)
O=C(O)Cc1c[nH]c2ccccc12 [IAA, indoleacetic acid] | + | + | + | + | + | + | +
CC(CC(=O)O)c1c[nH]c2ccccc12 (stereo not drawn) [IBA, 3-(3-indolyl) butyric acid] | + | + | + | + | − | − | −
O=C(O)CCc1c[nH]c2ccccc12 [IPA, 3-indole propionic acid] | + | + | + | + | + | + | +
